Results on two molecules are retold here after article PMC2990605 (British Journal of Cancer, 2010).

SMILES strings stand for the structures.

The conditions of series [1]: in vivo.
Method: On day 21, samples were taken until 8 h post-dose; the day 22 predose sample was used as the 24 h sample of day 21. […] Peak plasma concentrations (Cmax), overall drug exposure (AUC), and terminal plasma half-life (t½) were calculated using noncompartmental methods using WinNonlin Professional software (version 4.1, Pharsight Corporation, St Louis, MO, USA). Pharmacokinetics analysis, with reference to possible interactions, was descriptive.
The subject of series [2] is intracellular aminopeptidases. The conditions noted are these: cited from earlier work.
On the set-up of series [3]: method as in Talmadge et al, 1986; Ichinose et al, 2003. The conditions noted are these: ref Talmadge et al, 1986; Ichinose et al, 2003; cited from earlier work.

Regarding `CC(C)C[C@@H](C(=O)N[C@H](C(=O)O)c1ccccc1)[C@H](O)C(=O)NO` [CHR-79888], the “overall exposure versus dose” value in series [1] is on record as “increased in a dose proportional manner”. In addition, in series [2], the “inhibition of intracellular aminopeptidases” value is listed as “potent inhibitor”. As to `CC(C)C[C@H](NC(=O)[C@@H](O)[C@H](N)Cc1ccccc1)C(=O)O` [bestatin], the immunostimulatory activity result in series [3] is reported as “immunostimulatory activity has been described”.
